Results reported in PubChem BioAssay (NCI).
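Results reflect a 48-hour exposure of cells in 96-well plates to compound at five concentrations. GI50 = concentration required for 50% inhibition of growth. TGI denotes the concentration required for complete inhibition of growth.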

Experiments:
Test in all cases: NCI tumour cell line growth inhibition, 48 h
SF-539 CNS = system: SF-539 CNS
ACHN renal = system: ACHN renal
NCI-H522 lung = system: NCI-H522 lung
HS 578T breast = system: HS 578T breast
MDA-MB-468 breast = system: MDA-MB-468 breast
SK-OV-3 ovarian = system: SK-OV-3 ovarian
MALME-3M melanoma = system: MALME-3M melanoma
SK-MEL-5 melanoma = system: SK-MEL-5 melanoma
SK-MEL-28 melanoma = system: SK-MEL-28 melanoma
EKVX NSCLC = system: EKVX NSCLC
NCI-H460 lung = system: NCI-H460 lung
786-0 renal = system: 786-0 renal
TK-10 renal = system: TK-10 renal
HOP-62 NSCLC = system: HOP-62 NSCLC
NCI-H23 lung = system: NCI-H23 lung
SW-620 colon = system: SW-620 colon
MDA-MB-435 = system: MDA-MB-435
HCT-116 colon = system: HCT-116 colon
A498 renal = system: A498 renal
OVCAR-8 ovarian = system: OVCAR-8 ovarian
COLO 205 colon = system: COLO 205 colon
PC-3 prostate = system: PC-3 prostate
HL-60(TB) leukemia = system: HL-60(TB) leukemia
HT29 colon = system: HT29 colon
UO-31 renal = system: UO-31 renal
DU-145 prostate = system: DU-145 prostate

With `CN(C)c1nc(NCCNS(=O)(=O)c2ccc(C3=Nc4c(N)nc(N)nc4NC(c4ccc(F)cc4)C3)cc2)nc(Nc2ccc(F)cc2)n1` (stereo unspecified) as the compound, how does the TGI (SF-539 CNS) read?
Its TGI is greater than 100 µM.

And the GI50 (ACHN renal)?
The GI50 was greater than 100 µM.

And the TGI (ACHN renal)?
The TGI was greater than 100 µM.

And the GI50 (NCI-H522 lung)?
Its GI50 is 34.8 µM.

What about the TGI (NCI-H522 lung) of the same compound?
The TGI was greater than 100 µM.

And the GI50 (HS 578T breast)?
Its GI50 is 5.7 µM.

What about the TGI (HS 578T breast) of the same compound?
The TGI was greater than 100 µM.

What about the GI50 (MDA-MB-468 breast) of the same compound?
Its GI50 is 2.15 µM.

What about the TGI (MDA-MB-468 breast) of the same compound?
The TGI was 6.24 µM.

And the GI50 (SK-OV-3 ovarian)?
Its GI50 is greater than 100 µM.

What about the TGI (SK-OV-3 ovarian) of the same compound?
Its TGI is greater than 100 µM.

And the GI50 (MALME-3M melanoma)?
Its GI50 is 6.28 µM.

What about the TGI (MALME-3M melanoma) of the same compound?
The TGI was greater than 100 µM.

What about the GI50 (SK-MEL-5 melanoma) of the same compound?
Its GI50 is 3.36 µM.

And the TGI (SK-MEL-5 melanoma)?
Its TGI is 14.9 µM.

What about the GI50 (SK-MEL-28 melanoma) of the same compound?
Its GI50 is 15.7 µM.

And the TGI (SK-MEL-28 melanoma)?
The TGI was greater than 100 µM.

And the GI50 (EKVX NSCLC)?
The GI50 was 5.17 µM.

What about the TGI (EKVX NSCLC) of the same compound?
The TGI was greater than 100 µM.

What about the GI50 (NCI-H460 lung) of the same compound?
The GI50 was 4.74 µM.

What about the TGI (NCI-H460 lung) of the same compound?
The TGI was greater than 100 µM.

And the GI50 (786-0 renal)?
The GI50 was 4.77 µM.

And the TGI (786-0 renal)?
The TGI was greater than 100 µM.

And the GI50 (TK-10 renal)?
The GI50 was greater than 100 µM.

What about the TGI (TK-10 renal) of the same compound?
Its TGI is greater than 100 µM.

What about the GI50 (HOP-62 NSCLC) of the same compound?
The GI50 was 96 µM.

And the TGI (HOP-62 NSCLC)?
Its TGI is greater than 100 µM.

And the GI50 (NCI-H23 lung)?
The GI50 was 54.1 µM.

What about the TGI (NCI-H23 lung) of the same compound?
The TGI was greater than 100 µM.

And the GI50 (SW-620 colon)?
Its GI50 is 8.27 µM.

And the TGI (SW-620 colon)?
Its TGI is greater than 100 µM.

And the GI50 (MDA-MB-435)?
Its GI50 is 5.93 µM.

What about the TGI (MDA-MB-435) of the same compound?
Its TGI is greater than 100 µM.

And the GI50 (HCT-116 colon)?
Its GI50 is 4.54 µM.

What about the TGI (HCT-116 colon) of the same compound?
The TGI was greater than 100 µM.

What about the GI50 (A498 renal) of the same compound?
The GI50 was 22.1 µM.

What about the TGI (A498 renal) of the same compound?
Its TGI is greater than 100 µM.

What about the GI50 (OVCAR-8 ovarian) of the same compound?
The GI50 was 12 µM.

And the TGI (OVCAR-8 ovarian)?
Its TGI is greater than 100 µM.

What about the GI50 (COLO 205 colon) of the same compound?
The GI50 was 11.8 µM.

What about the TGI (COLO 205 colon) of the same compound?
The TGI was greater than 100 µM.

What about the GI50 (PC-3 prostate) of the same compound?
Its GI50 is 5.04 µM.

And the TGI (PC-3 prostate)?
The TGI was greater than 100 µM.

What about the GI50 (HL-60(TB) leukemia) of the same compound?
Its GI50 is 3.12 µM.

What about the TGI (HL-60(TB) leukemia) of the same compound?
Its TGI is greater than 100 µM.

And the GI50 (HT29 colon)?
Its GI50 is 3.88 µM.

And the TGI (HT29 colon)?
Its TGI is greater than 100 µM.

And the GI50 (UO-31 renal)?
Its GI50 is greater than 100 µM.

What about the TGI (UO-31 renal) of the same compound?
The TGI was greater than 100 µM.

And the GI50 (DU-145 prostate)?
Its GI50 is 52 µM.

What about the TGI (DU-145 prostate) of the same compound?
Its TGI is greater than 100 µM.
